Reference: patent US9957253B2, “Triaminopyrimidine compounds useful for preventing or treating malaria” (MMV MEDICINES FOR MALARIA VENTURE, priority 2014, dated 2018)

Assay: Pharmacokinetic studies (IVPK/POPK) in male Beagle dogs
Type: in vivo
Details: Dog
Description: All in vivo studies were approved by the institutional animal ethics committee. Pharmacokinetics following IV bolus (IVPK) or oral administration (POPK) of compounds was determined in male Wistar rats or male Beagle dogs. For IVPK in rats, Example 7 and Example 10 were administered as solutions in 20% DMA, 80% phosphate-buffered saline and Example 13 was administered as a solution in 10% v/v NMP, 20% v/v DMA in saline. For POPK, Example 7 and Example 10 were administered as suspensions in 20% DMA, 80% phosphate buffered saline and Example 13 was administered as a suspension in 0.5% HPMC and 0.1% Tween 80 through an oral gavage. Example 13 was administered to dogs as a solution in 10% Ethanol, 30% PEG 400, 60% saline for IVPK and as a suspension in 0.5% HPMC, and 0.1% Tween 80 for POPK. Doses used for rat and dog PK were 0.5 mg/kg for Examples 7 and 10 or 2 mg/kg for Example 13 (IVPK). Doses of 5 mg/kg for Examples 7 and 10 were used during POPK. Doses of 10 mg/kg were used for Example 13 during POPK studies. Blood samples were collected at 8 to 13 time points (0, 0.0833, 0.25, 0.283, 0.333, 0.417, 0.75, 1.25, 3.25, 6.25, 12.25, 24.25 h for dog IVPK; 0, 0.25, 0.5, 1, 1.5, 2, 3, 4, 8, 12, 24, 32, 48 h for dog POPK; 0.083, 0.25, 0.5, 1, 2, 4, 7, 24 h for rat IVPK; 0.25, 1, 3, 6, 12, 24, 36, 48 h for rat POPK) after dosing. Blood (rat) or plasma (dog) samples were analysed by LC-MS/MS. PK parameters were estimated by non-compartmental analysis in Phoenix®.

Compound: Cc1nc(Nc2ncc(N3CCN(C)[C@H](C)C3)c(Nc3cc(C)n(C)n3)n2)cc(C2CC2)c1F [Example 13, (R)—N2-(4-cyclopropyl-5-fluoro-6-methylpyridin-2-yl)-N4-(1,5-dimethyl-1H-pyrazol-3-yl)-5-(3,4-dimethylpiperazin-1-yl)pyrimidine-2,4-diamine]
- Oral ‘F’ (oral 10 mg/kg): 82%
- ½ life (PO PK) (oral 10 mg/kg): 9 h
- clearance (male, Beagle, blood, IV bolus 2 mg/kg, read-out: CL blood): 19 mL/min/kg
- Vd (male, Beagle, blood, IV bolus 2 mg/kg, read-out: Vss blood): 16 L/kg
